The source of these data is patent US20260103474A1, “NOVEL COMPOUNDS FOR THE DIAGNOSIS OF TDP-43 PROTEINOPATHIES” (AC IMMUNE SA, priority 2022, published 2026).

Assay [1] concerns the target T1, PD brain-derived a-synuclein aggregates (Homo sapiens, UniProt P37840).
T1 construct: from tissue; host or cells: frozen brain tissue of PD donors, 1% sarkosyl-insoluble pellet
Put plainly: Micro-radiobinding competition assay against a-syn reference on PD brain-derived insoluble fraction. The following applies: against [3H]-reference a-syn compound. The class given is binding. As for the experimental part: The procedure was adapted from the protocol described in Spillantini et al., 1998. Frozen tissue blocks from PD donors were thawed on ice and homogenized using a glass dounce homogenizer. The homogenate was then centrifuged at 11,000×g (12,700 RPM) in an ultracentrifuge (Beckman, XL100K) for 20 minutes at 4° C. using a pre-cooled 70.1 rotor (Beckman, 342184). Pellets were resuspended in extraction buffer [10 mM Tris-HCl pH 7.4, 10% sucrose, […], 1% protease inhibitor (Calbiochem 539131), 1 mM EGTA, 1% phosphatase inhibitor (Sigma P5726 and P0044)] and centrifuged at 15,000×g (14,800 RPM, a 70.1 Ti rotor) for 20 minutes at 4° C. […]
PD brain-derived a-synuclein aggregates and AD brain-derived Tau PHF aggregates were spotted onto microarray slides. […] Quantification of signal was performed by using the image analysis software Beamage (ai4R). Non-specific signal was determined with an excess of non-radiolabelled compound (2 μM) and specific binding was calculated by subtracting the non-specific signal from the total signal. Competition was calculated as percentage, where 0% was defined as the specific binding in the presence of vehicle and 100% as the values obtained in the presence of excess of the non-radiolabelled a-syn reference compound. Ki values were calculated in GraphPad Prism7 by applying a nonlinear regression curve fit using a one site, specific binding model. […]

Assay [2] has as its system AD brain homogenates (containing Abeta and Tau). The assay can be described thus: Radiobinding assay (direct binding, Kd) on AD insoluble fraction of brain homogenates. The arrangement: species or system human. The following applies: saturation binding of tritiated compound. Here is the method:
Approximately 4 g of frozen tissue block from frontal cortex brain region was used from an AD donor with confirmed burden of Tau and Abeta aggregates. The tissue was homogenized in three volumes (1:3 w/v) of high salt buffer (50 mM Tris-HCl pH 7.5, 750 mM NaCl, 5 mM EDTA) supplemented with protease inhibitors (Complete; Roche 11697498001) at 4° C. with a glass Dounce homogenizer. The homogenate was transferred into polycarbonate centrifuge bottles (16×76 mm; Beckman 355603) and centrifuged at 100,000×g (38,000 RPM) in an ultracentrifuge (Beckman, XL100K) for 60 minutes at 4° C. using a pre-cooled 70.1 rotor (Beckman, 342184). Pellets were resuspended in high salt buffer supplemented with 1% Triton X-100 and homogenized at 4° C. with a syringe. The homogenates were centrifuged again at 100,000×g (38,000 RPM, 70.1 rotor) for 60 minutes at 4° C. Pellets were resuspended in high salt buffer supplemented with 1% Triton X-100 and 1 M sucrose and homogenized at 4° C. with a syringe. […]
The AD insoluble fraction was incubated with [^3H]Compound 1, [^3H]Compound 17 or [^3H]Abeta reference compound ([^3H]Abeta ref) at different concentrations. […] The filters were analyzed on a Microbeta scintillation counter (PerkinElmer). Specific binding was calculated by subtracting the non-specific signal from the total signal. […]

Regarding `O=C1c2sc(-c3ccc(N4CC[C@@H](F)C4)nc3F)nc2CCN1c1cccnc1` [Compound 1, 2-[2-fluoro-6-[(3R)-3-fluoropyrrolidin-1-yl]-3-pyridyl]-5-(3-pyridyl)-6,7-dihydrothiazolo[5,4-c]pyridin-4-one], in assay [1], the Ki is > 500 nM. Turning to `[3H]C([3H])(O)C1CCN(c2ccc(-c3nc4c(s3)C(=O)N(c3cccnc3)CC4)c(F)n2)CC1` [[^3H]-Compound 17, 2-(2-fluoro-6-(4-(hydroxymethyl-t2)piperidin-1-yl)pyridin-3-yl)-5-(pyridin-3-yl)-6,7-dihydrothiazolo[5,4-c]pyridin-4(5H)-one], the “Direct binding in AD brain homogenates (containing Abeta and Tau)” value in assay [2] is given as “No significant binding”. The same measure, in the same setting: in the case of `[3H]c1cncc(N2CCc3nc(-c4cc([3H])c(N5CC[C@@H](F)C5)nc4F)sc3C2=O)c1` [[^3H]-Compound 1, tritiated 2-[2-fluoro-6-[(3R)-3-fluoropyrrolidin-1-yl]-3-pyridyl]-5-(3-pyridyl)-6,7-dihydrothiazolo[5,4-c]pyridin-4-one] it was “No significant binding”.
